Laboratory results reported in patent US5719174A, “Indenoindole compounds for use in organ preservation” (priority 1993, dated 1998).
Entries after “also recorded” stand apart in the source; their conditions may differ.

Assays:
[1] = system: lipid peroxidation in renal tissue; assay: In vitro hypoxia and reoxygenation of kidney tissue (TBARS formation); format: cell-based; conditions: pH 7.4; rat kidney slices, 37° C., pH 7.40, 40 min hypoxia (argon), 30 min reoxygenation; read-out: pIC50, -log of the concentration needed to reduce TBARS formation by 50% of the corresponding vehicle value (converted)
Protocol: Lipid peroxidation was also tested in renal tissue. Samples were obtained from anesthetized rats, cut into 2 mm slices and put into 50 ml Erlenmeyer flasks containing 40 mmol 1^-1 Hepes buffer (pH 7.40) 37° C. (10-100 mg tissue per 4 ml buffer). The tissue was made hypoxic for 20 min by bubbling a fine stream of argon gas through the buffer. After that an antioxidant or the corresponding vehicle was added to the buffer and the tissue was kept under argon for an additional period of 20 min. The sample was then reoxygenated by vigourous bubbling of the buffer with 95.5% O2 :CO2. After 30 min reoxygenation the iron chelator deferoxamine mesylate (Ciba Geigy AG, Basel, Switzerland) was added (final concentration 45 μmol 1^-1). The sample was homogenized on ice, quickly frozen in dry-ice and alcohol and stored at -70° C. After thawing the formation of 2-thiobarbituric acid-reactive material (TBARS) was determined (Svensson et al Scand J Clin Invest 1993:53). The potencies of the antioxidants (pIC50 i.e. -log of the concentration (antioxidant) needed to reduce TBARS formation by 50% of the corresponding vehicle value) was for compound I: 6.8 and for compound II: 6.8.

[2] = system: oxidation of lipoproteins in human plasma (rabbit smooth muscle cells); assay: Oxidation of lipoproteins in human plasma in the presence of rabbit smooth muscle cells; format: cell-based
[3] = system: isolated perfused rat heart; assay: Postischemic recovery of the isolated perfused (Langendorff) heart after six hours cold ischemia; conditions: for prevention of ischemic and reperfusion damage to isolated perfused rat heart: additive to organ preservation solutions
Protocol: Experiments were designed to investigate the effect on the myocardial recovery after six hours cold ischemia when an antioxidative agent compound II, was added to a crystalloid cardioplegic solution, such as Plegisol (Abbott). The retrogradely perfused (Langendorff) isolated rat heart with an intra-ventricular balloon was used. The hearts were single flushed perfused (10 ml, 4° C.) with either plain Plegisol or Plegisol supplemented with 1 μmol/l of compound II. The hearts were then stored for 6 hours in the respective solution at 4° C. In a third group hearts were single flush perfused with Plegisol without storage of the hems.

[4] = system: oxidation of lipoproteins in human plasma (mouse peritoneal macrophages); assay: Oxidation of lipoproteins in human plasma in the presence of mouse peritoneal macrophages; format: cell-based, human plasma; mouse cells
rat liver = assay: Ischemic and reperfusion damage to rat liver; conditions: additive to organ preservation solutions
lipid peroxidation = assay: Ascorbate/Fe^2+ -dependent lipid peroxidation; format: biochemical; conditions: ascorbate/Fe^2+ model, in vitro
Excerpt: The indenoindole compounds are efficient as flee-radical scavengers or antioxidants. An assay system measuring the concentration of the compounds of formulas I and II required to inhibit lipid peroxidation by 50% (IC50) was used. The assay system, ascorbate/Fe^2+ -dependent lipid peroxidation, was the same system used in EP-A 409 410 and detailed information about the system is given in said patent specification.

[5] = system: isolated heart cells (myocytes); assay: Inhibition of reoxygenation damage in isolated heart cells (LD-leakage); format: cell-based, rat; conditions: for prevention of ischemic and reperfusion damage to isolated rat heart cells: additive to organ preservation solutions
Protocol: Hearts were collected from 2 and 6 days old rats and the ventricles were dissected free, placed in Hanks balanced salt solution without Ca^2+ and Mg^2+ but with 0.35 g/l sodium-carbonate and cut in small pieces. The cells were dispersed in the same solution but supplemented with collagenase solution (type 1, 0.8 mg/ml) at 37° C. for 10 minutes and centrifuged, 160 xg for 5 minutes. Subsequently, 5 serial 20 minutes digestions were performed. The cells from the initial digestion were discarded. Centrifugation was made after each 20 minutes period and the collage nase solution was changed to Ham's F 10 culture medium, supplemented with 10% fetal bovine serum (FBS), glutamine 2 mM, penicillin 50 IU/ml and streptomycin 50 μg/ml. A modified method to enrich the isolation of myocytes, were used, including replaiting the cells twice for 30 and 90 min, respectively. The myocytes were plated on 35 mm plastic culture dishes at a density of approximately 9×10^5 cells/ml (1.8×10^6 cells/dish). The cells were kept in culture for 6 days at 37° C. and 5% CO2 under aerobic conditions in a Forma Scientific carbon dioxide incubator, 5% CO2. During this period the cells reached confluence and were beating spontaneously at an approximate frequency of 20-40 beats/min. Each culture dish contained 0.9±0.2 mg protein. The supplemented F10-medium was changed each day. The antioxidant compound II was added to the culture medium in ethanol, reaching a final concentration of 0.1% ethanol. The final concentration of compound II in the culture medium was 0.01, 0.1, 1.0 or 5.0 μmol/l. Before starting the experiment the medium above the myocytes were removed and changed to fresh F10-medium supplemented with glutamine, which was made hypoxic by argon bubbling for 1 hour before addition to the cells. The culture plates were transferred to specially designed air tight thermostated chambers. The experiment lasted for 300 min including 60 min hypoxia, when nitrogen (95% N2, 5% CO2) was slowly gassed above the cells, followed by 240 min reoxygenation (95% O2, 5% CO2). Cell viability was determined by leakage of LD into the medium, and was analyzed after various times 1, 30, 60, 90, 120, 180, 240 and 300 min.

rat bone marrow = assay: Ischemic and reperfusion damage to rat bone marrow; conditions: additive to organ preservation solutions
[6] = system: lipid peroxidation in renal tissue; assay: Ex vivo hypoxia and reoxygenation of renal tissue after oral administration to mice; format: in vivo, mouse; conditions: for time after administration up till which lipid peroxidation was abolished: oral dose of 50 mg/kg; for inhibition of lipid peroxidation in renal tissue subjected to ex vivo hypoxia and reoxygenation: oral dose of 50 mg/kg (dose for compounds I and II)
rat kidney = assay: Ischemic and reperfusion damage to rat kidney; conditions: additive to organ preservation solutions

| SMILES | IC50 [1] [nM] | prevention of oxidation of lipoproteins in human plasma [2] | postischemic LVDP compared to plain Plegisol, in words ([3]; Plegisol with 1 μmol/l, 6 hours at 4° C.) | postischemic left ventricular developed pressure (LVDP) ([3]; Plegisol with 1 μmol/l, 6 hours at 4° C., mean±SEM, plain Plegisol 57±11%, without storage 89±1%) | prevention of ischemic and reperfusion damage to isolated perfused rat heart [3] | prevention of oxidation of lipoproteins in human plasma [4] | prevention of ischemic and reperfusion damage to rat liver (rat liver) | pIC50, inhibition of ascorbate/Fe^2+ -dependent lipid peroxidation (lipid peroxidation) | inhibition at 1 µM ([5]; Rattus norvegicus, 1 μmol/l, 60 min hypoxia, 240 min reoxygenation, read-out: reduction of the damage (LD-leakage)) [%] | IC50 ([5]; Rattus norvegicus, 60 min hypoxia, 240 min reoxygenation, read-out: calculated pIC50 (-logIC50), LD-leakage (converted)) [nM] | prevention of ischemic and reperfusion damage to isolated rat heart cells [5] | prevention of ischemic and reperfusion damage to rat bone marrow (rat bone marrow) | time after administration up till which lipid peroxidation was abolished [6] [h] | inhibition of lipid peroxidation in renal tissue subjected to ex vivo hypoxia and reoxygenation [6] | prevention of ischemic and reperfusion damage to rat kidney (rat kidney) | time after administration up to which inhibitory effect on lipid peroxidation could be detected ([6]; dose not separately printed for compound III) |
| --- | --- | --- | --- | --- | --- | --- | --- | --- | --- | --- | --- | --- | --- | --- | --- | --- |
| COc1cc(C)c2c(c1)C1c3ccccc3CC1N2 (stereo not drawn) [Compound II, 9-Methoxy-7-methyl-iso-THII] | 158 | prevent efficiently oxidation of lipoproteins | significantly improved; also recorded: drastically improves the functional recovery of rat hearts | 90±9 % of preischemic value | prevent ischemic and reperfusion damage | prevent efficiently oxidation of lipoproteins | prevent ischemic and reperfusion damage | 8.2 | 90 | 31.6 | prevent ischemic and reperfusion damage | prevent ischemic and reperfusion damage | ≤ 6 | abolished lipid peroxidation in renal tissue | prevent ischemic and reperfusion damage | – |
| COc1cc(C)c2c(c1)C1Cc3ccccc3C1N2 (stereo not drawn) [Compound I, 8-Methoxy-6-methyl-THII] | 158 | prevent efficiently oxidation of lipoproteins | – | – | prevent ischemic and reperfusion damage | prevent efficiently oxidation of lipoproteins | prevent ischemic and reperfusion damage | 8.0 | – | – | prevent ischemic and reperfusion damage | prevent ischemic and reperfusion damage | ≤ 6 | abolished lipid peroxidation in renal tissue | prevent ischemic and reperfusion damage | – |
| Cc1cc(C)c2c(c1)C1(C)Cc3ccccc3C1(C)N2 (stereo not drawn) [Compound III, 4b,6,8,9b-Tetramethyl-THll, reference compound] | – | – | – | – | – | – | – | 7.4 | – | – | – | – | – | only weak inhibitory effect on lipid peroxidation | – | up to 30 min |
| Cc1c(C)c2c(c(C)c1O)CCC(C)(CCCC(C)CCCC(C)CCCC(C)C)O2 (stereo not drawn) [α-Tocopherol, reference compound] | – | – | – | – | – | – | – | 5.0 | – | – | – | – | – | – | – | – |
